For series [1], the target named is T1, human adenosine-A1 receptors (Homo sapiens, UniProt P30542).
T1 construct: expressed in transfected cells; host or cells: CHO cells
T1 sequence (P30542 1-326): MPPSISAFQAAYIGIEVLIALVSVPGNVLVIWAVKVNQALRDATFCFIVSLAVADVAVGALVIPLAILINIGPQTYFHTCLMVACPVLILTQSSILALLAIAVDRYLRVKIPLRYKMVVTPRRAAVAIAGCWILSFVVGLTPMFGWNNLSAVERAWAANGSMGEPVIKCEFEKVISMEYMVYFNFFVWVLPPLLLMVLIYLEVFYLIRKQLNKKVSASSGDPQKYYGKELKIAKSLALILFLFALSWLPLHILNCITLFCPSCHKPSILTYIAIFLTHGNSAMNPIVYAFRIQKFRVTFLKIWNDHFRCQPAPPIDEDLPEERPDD
In words: In vitro affinity for human adenosine-A1 receptors (radioligand [3H]DPCPX). Format: binding. To be noted: human recombinant receptors expressed in CHO cells; for Ki: read-out: Adenosine receptor affinity (binding) A1 pKi (converted). As to the method:
Affinity of the compounds for human adenosine-A1 receptors was determined using the receptor binding assay described by A. Townsend-Nicholson and P. R. Schofield (Biol. Chem., 269, 2373, 1994), using human recombinant receptors expressed in CHO cells, and [^3H]DPCPX as radioligand.

Series [2] addresses T2, human Adenosine A3 receptor (Homo sapiens, UniProt P0DMS8).
T2 sequence (P0DMS8 1-318): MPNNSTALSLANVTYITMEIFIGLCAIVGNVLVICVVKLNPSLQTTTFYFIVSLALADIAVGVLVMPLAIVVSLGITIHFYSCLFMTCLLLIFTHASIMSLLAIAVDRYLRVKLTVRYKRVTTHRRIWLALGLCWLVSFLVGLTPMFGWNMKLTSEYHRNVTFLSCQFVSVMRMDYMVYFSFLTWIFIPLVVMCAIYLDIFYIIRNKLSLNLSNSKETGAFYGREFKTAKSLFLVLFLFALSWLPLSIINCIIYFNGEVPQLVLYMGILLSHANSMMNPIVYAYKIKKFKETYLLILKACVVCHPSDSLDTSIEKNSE
In words: In vitro functional activity on human adenosine A3 receptors using an Aequorin-based assay. It is filed as cell-based. Set-up: A. et al. (Acc. Number GenBank: L22607); host or cells: CHO-K1 cells stably expressing mitochondrially targeted aequorin and Galpha16. To be noted: hA3-Aequorin CHO-K1 cells; for EC50: agonist mode, concentrations up to 10^−5 M, read-out: Functional activity A3 agonism pEC50 (converted); for Kb: read-out: Functional activity A3 antagonism pA2 (converted). The text has this:
A stable monoclonal hA3-Aequorin cell line was provided by Euroscreen. The coding region encoding the human Adenosine A3 receptor was amplified by polymerase chain reaction (PCR), using human lung cDNA as template. The PCR product was ligated in the expression vector pEFIN3 (Invitrogen), and the complete sequence of the insert was then established. […] A. et al. (Acc. Number GenBank: L22607). The expression plasmid containing the coding sequence of the human Adenosine A3 receptor was transfected in CHO-K1 cells stably expressing mitochondrially targetted Aequorin and Gα16. Resistant clones were selected in the presence of 400 μg/ml G418 and isolated by limiting dilution. […] The hA3-Aequorin cells express mitochondrially targetted apo-Aequorin. Cells have to be loaded with coelenterazine, in order to reconstitute active Aequorin. After binding of agonists to the hA3 receptor, the intracellular calcium concentration increases, which leads to a luminescent response. Binding of calcium to the apo-Aequorin/coelenterazine complex leads to an oxidation reaction of coelenterazine, which results in the production of apo-Aequorin, coelenteramide, CO2 and light (λmax 469 nm). This luminescent response is dependent on the agonist concentration.
Assay-protocol: • Dilute the loaded cells 18× in Dulbecco's medium without PhenolRed (Gibco BRL), pre-heated to 37° C., resulting in a concentration of 2.8*10^5 cells/ml. • Stir for 1 hour at room temperature. • Add 10 μl compound or control per well in white 96-well plates. • Add 90 μl of diluted cells (2.5*10^4 cells/well). • Measure chemoluminescence immediately for 20 seconds. • In antagonist mode 50 μl 10^−6 N6-benzyl-NECA is added as the agonist. • Measure chemoluminescence immediately for 20 seconds using the MicroBetaJet (PerkinElmer).

Series [3] concerns the target T3, human adenosine-A2B receptors (Homo sapiens, UniProt P29275).
T3 construct: expressed in transfected cells; host or cells: HEK-293 cells
T3 sequence (P29275 1-332): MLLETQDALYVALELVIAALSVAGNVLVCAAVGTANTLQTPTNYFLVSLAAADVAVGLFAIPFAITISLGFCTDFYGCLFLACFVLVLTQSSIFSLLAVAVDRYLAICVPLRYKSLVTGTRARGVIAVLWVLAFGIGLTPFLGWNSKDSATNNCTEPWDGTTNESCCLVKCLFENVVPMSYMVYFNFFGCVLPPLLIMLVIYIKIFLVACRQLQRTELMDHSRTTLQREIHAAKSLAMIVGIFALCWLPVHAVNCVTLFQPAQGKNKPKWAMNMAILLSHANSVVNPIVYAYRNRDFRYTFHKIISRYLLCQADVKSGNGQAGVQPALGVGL
In words: In vitro affinity for human adenosine-A2B receptors (radioligand [3H]MRS 1754). It is filed as binding. Particulars: human recombinant receptors expressed in HEK-293 cells; for Ki: read-out: Adenosine receptor affinity (binding) A2B pKi (converted). Here is the method: Affinity of the compounds for human adenosine-A2B receptors was determined using the receptor binding assay described by J. H. Stehle et al. (Mol. Endocrinol., 6, 384, 1992), using human recombinant receptors expressed in HEK-293 cells, and [^3H]MRS 1754 as radioligand.

Series [4] deals with T4, human adenosine-A2A receptors (Homo sapiens, UniProt P29274).
T4 construct: expressed in transfected cells; host or cells: HEK-293 cells
In words: In vitro affinity for human adenosine-A2A receptors (radioligand [3H]CGS 21680). It is filed as binding. Particulars: human recombinant receptors expressed in HEK-293 cells; for Ki: read-out: Adenosine receptor affinity (binding) A2A pKi (converted). Here is the method: Affinity of the compounds for human adenosine-A2A receptors was determined using the receptor binding assay described by D. R. Luthin et al., (Mol. Pharmacol., 47, 307, 1995), using human recombinant receptors expressed in HEK-293 cells, and [^3H]CGS 21680 as radioligand.

Series [5] has as its target T2, human Adenosine A3 receptor. In words: In vitro affinity for human adenosine-A3 receptors (radioligand [125I]-AB-MECA). Format: binding. Set-up: expressed in transfected cells; host or cells: HEK 293 cells (membrane preparations). Particulars: membranes of HEK 293 cells stably expressing human A3, [125I]-AB-MECA, 22° C., 90 minutes; read-out: Adenosine receptor affinity (binding) A3 pKi (converted). As to the method: Affinity of the compounds for human adenosine-A3 receptors was determined using the receptor binding assay described by C. A. Salvatore et al.: “Molecular cloning and characterization of the human A3 adenosine receptor”, Proc. Natl. Acad. Sci. USA, 90, 10365-10369, 1993. Briefly, membrane preparations were obtained from human recombinant (HEK 293) cells in which the human adenosine-A3 receptor was stably expressed. […] Separation of bound radioactivity from free was done by filtration through Packard GF/B glass fiber filters with several washings with ice-cold buffer using a Packard cell harvester. Bound radioactivity was measured with a scintillation counter (Topcount, Packard) using a liquid scintillation cocktail (Microscint 0, Packard). […] Determination of In Vitro Functional Activity on Human Adenosine A3 Receptors Using an Aequorin-based Assay

Where [6] appears, read: antagonist mode, N6-benzyl-NECA as the agonist.

Structures are written as SMILES.

T4 sequence (P29274 whole entry): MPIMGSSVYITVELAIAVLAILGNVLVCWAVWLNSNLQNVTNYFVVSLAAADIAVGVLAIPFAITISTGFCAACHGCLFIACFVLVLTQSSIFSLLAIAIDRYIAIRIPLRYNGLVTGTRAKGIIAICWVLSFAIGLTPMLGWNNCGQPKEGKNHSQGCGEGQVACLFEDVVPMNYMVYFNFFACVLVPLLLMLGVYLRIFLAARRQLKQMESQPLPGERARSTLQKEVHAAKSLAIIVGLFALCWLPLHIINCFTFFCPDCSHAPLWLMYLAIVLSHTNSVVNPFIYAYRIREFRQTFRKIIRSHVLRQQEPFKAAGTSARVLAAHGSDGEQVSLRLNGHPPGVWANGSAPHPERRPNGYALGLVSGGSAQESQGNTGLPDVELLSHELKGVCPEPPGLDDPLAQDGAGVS

Take `Cn1cnc2c(C(F)(F)F)nc(NCc3ccccc3)nc21` [Compound 7, 6-trifluoromethyl-9-methyl-2-benzylamino purine]: the Ki was above 10 µM in series [1], above 10 µM in series [3], above 10 µM in series [4] and 3.16 µM in series [5]. In addition, the EC50 in series [2] was above 10 µM. The Kb in series [2] (setting [6]) is 1.58 µM.

With `OC[C@H]1O[C@@H](n2cnc3c(C(F)(F)F)nc(NCc4ccccc4)nc32)[C@H](O)[C@@H]1O` [Compound 8, 2-benzylamino-6-trifluoromethyl-9-β-D-ribofuranosyl purine], the Ki is 7.94 µM in series [1], above 10 µM in series [3], 12.6 µM in series [4] and 0.316 µM in series [5]. For the same compound, the Kb in series [2] (setting [6]) was 0.0398 µM.

In the case of `OC[C@H]1O[C@@H](n2cnc3c(C(F)(F)F)nc(NCCc4ccccc4)nc32)[C@H](O)[C@@H]1O` [Compound 26, 2-phenethylamino-6-CF3-9-β-D-ribofuranosyl purine], the “Adenosine receptor affinity (binding) A1 pKi” value in series [1] is listed as below 5.0. Moreover, the “Functional activity A3 antagonism pA2” value in series [2] (setting [6]) stood at 9.8. In addition, the “Adenosine receptor affinity (binding) A2B pKi” value in series [3] is recorded as below 5.0. For the same compound, the “Adenosine receptor affinity (binding) A2A pKi” value in series [4] is below 5.0.

Consider `Cn1cnc2c(C(F)(F)F)nc(NCCc3ccccc3)nc21` [Compound 10, 6-trifluoromethyl-9-methyl-2-phenethylamino purine], for which the Ki in series [1] was 6.31 µM; in series [3], 12.6 µM; in series [4], 15.8 µM; in series [5], 1.58 µM. Besides, the EC50 in series [2] is above 10 µM. Further, in series [2] (setting [6]), the Kb was 3.16 µM.

Consider `FC(F)(F)c1nc(NCCc2ccccc2)nc2nc[nH]c12` [Compound 9, 6-trifluoromethyl-2-phenethylamino purine], for which the Ki was 1 µM in series [1], above 10 µM in series [3], 12.6 µM in series [4] and 0.0126 µM in series [5]. Further, the EC50 in series [2] is above 10 µM. For the same compound, in series [2] (setting [6]), the Kb is 0.002 µM.

Take `OC[C@H]1O[C@@H](n2cnc3c(C(F)(F)F)nc(N4CCC(O)CC4)nc32)[C@H](O)[C@@H]1O` [Compound 4, 2-(4-OH-piperidinyl)-6-trifluoromethyl-9-β-D-ribofuranosyl purine]: the Ki in series [1] is above 10 µM; in series [4], above 10 µM; in series [5], 15.8 µM. The EC50 in series [2] is above 10 µM. Besides, the Kb in series [2] (setting [6]) is 0.2 µM.

Take `Cn1c(-c2cccs2)nc2c(C(F)(F)F)nc(NCCc3ccccc3)nc21` [Compound 14, 8-(thien-2-yl)-6-trifluoromethyl-9-methyl-2-phenethylamino purine]: the Ki was 6.31 µM in series [1], above 10 µM in series [4] and 1.58 µM in series [5]. In addition, the EC50 in series [2] is above 10 µM. Also, the Kb in series [2] (setting [6]) was 1.58 µM.

`Cn1c(/C=C\c2ccccc2)nc2c(C(F)(F)F)nc(NCCc3ccccc3)nc21` [Compound 22, 8-Z-styryl-6-trifluoromethyl-9-methyl-2-phenethylamino purine]: the Ki in series [1] is above 10 µM; in series [4], above 10 µM; in series [5], 2 µM. In addition, the EC50 in series [2] was above 10 µM. In series [2] (setting [6]), the Kb is 1 µM.

As to `FC(F)(F)c1nc(NCc2ccccc2)nc2nc[nH]c12` [Compound 6, 6-trifluoromethyl-2-benzylamino purine], the Ki in series [1] was 3.98 µM; in series [3] it was above 10 µM; in series [4], 20 µM; in series [5], 0.02 µM. Also, the EC50 in series [2] is above 10 µM. Also, in series [2] (setting [6]), the Kb is 0.158 µM.

Regarding `Cn1c(Br)nc2c(C(F)(F)F)nc(NCCc3ccccc3)nc21` [Compound 11, 8-bromo-6-trifluoromethyl-9-methyl-2-phenethylamino purine], the melting point lay within 131 to 139 °C. Also, the Ki in series [1] was above 10 µM. The Ki in series [4] was above 10 µM. Also, in series [5], the Ki was 1 µM.

One may read the melting point as the temperature, or range, at which the solid turns liquid.

The values are drawn from patent US7371737B2, “2-substituted-6-trifluoromethyl purine derivatives with adenosine-A3 antagonistic activity” (Solvay Pharmaceuticals, B.V., priority 2004, dated 2008).
